“Also recorded” adds a separate entry of the source.

Data set [1] can be described thus: Accelerated stability testing of PS80 (polysorbate content by mixed-mode chromatography with CAD). On the procedure: (§1) PS20 or PS80 obtained from different manufacturers (see Table 1) was dissolved in 20 mM aqueous buffer at pH 5.5 or 6.5 in a glass vial to a final concentration of 0.02% (w/v) polysorbate. The buffer salts used in the histidine buffers investigated were histidine chloride (HisCl) and various further histidine buffer salts (see below, all obtained from Sigma-Aldrich (now Merck KgaA)).
(§2) Degradation mechanisms of the polysorbates were explored using 20 mM imidazole chloride and 20 mM alanine chloride buffer salts. Also, HisCl buffer salt comprising solutions were prepared with the additional excipients of mannitol or trehalose (both Sigma-Aldrich) to determine the influence of sugars and their derivatives on polysorbate degradation. Finally, two different mAbs were used as the active agent that each contained 10 mg/mL mAb, 0.02% PS80 HX2 and 20 mM HisCl buffer salt at pH 6.5. The therapeutic protein solutions were provided by Lek d.d. (Mengeš, Slovenia). In all cases, the starting point samples were collected immediately and stored at −80° C. The vials were then placed into a 50° C. incubator for up to 2 months, with samples collected at 1 month and further samples in some cases at 2 months. All of these samples were stored at −80° C. for subsequent analysis.
(§3) The polysorbate contents were analysed and quantified using a method based on mixed-mode chromatography, as mixed anion exchange and reversed phase, combined with a charged aerosol detector (CAD). The external standard approach was used for quantification of the surfactants. Chromatographic analysis was carried out using the method of Hewitt et al. (Hewitt, D. et al. J. Chromatogr. A 1218, 2138-2145 (2011).
(§4) Analytes were separated using a Waters Oasis MAX column (30 μm particle size, 2.1 mm×20 mm), column temperature 30° C., flow rate 1 ml/min and a total run time of 10 min. The injection volume was 10 μL. Initial conditions were set at 90% solvent A (2% formic acid in purified water) and 10% solvent B (2% formic acid in isopropanol). Solvent B was increased to 20% in the first minute and held for 2.4 min. POE sorbitan esters were eluted using a step gradient of 20% to 100% B over 0.1 min, followed by an equilibration step of 10% B for 0.9 min.

Data set [2] in a line: Accelerated stability testing of PS20 (polysorbate content by mixed-mode chromatography with CAD). On the procedure:
as §1, §2, §3, §4

The conditions of data set [3]: as reported in prior work; cited from earlier work.
A short description of data set [4]: Accelerated stability testing of PS80 HX2 (polysorbate content by mixed-mode chromatography with CAD). Particulars: for degradation of PS80 HX2 in the presence of mAb1 / degradation of PS80 HX2 in the presence of mAb2: pH 6.5; for degradation of polysorbate 80 HX2: 0.02% w/v PS80 HX2, 20 mM histidine buffer salt, pH 6.5, 50° C. The protocol: as §1, §2, §3, §4

[5] abbreviates: 0.02% w/v PS80, 20 mM histidine chloride, pH 6.5, 50° C., 1 month.
The mark [6] stands for this setting: 0.02% w/v PS20, 20 mM histidine chloride, pH 6.5, 50° C., 1 month.

As for `O=C(O)CN(CCN(CC(=O)O)CC(=O)O)CC(=O)O` [EDTA], the “effect of added excipient on degradation of PS80” value (from here on “effect … of PS80”) in data set [1] (setting [5]) is given as “did not slow down the degradation”. Besides, the “effect of added excipient on degradation of PS20” value (“effect … of PS20” below) in data set [2] (setting [6]) is given as “did not slow down the degradation”.

On to `[Cl-].[Na+]` [NaCl], for which the “effect … of PS80” value in data set [1] (setting [5]) is listed as “did not slow down the degradation”. For the same molecule, the “effect … of PS20” value in data set [2] (setting [6]) is “did not slow down the degradation”.

`CC(=O)O.N[C@@H](Cc1c[nH]cn1)C(=O)O` [histidine acetate]: the “oxidative degradation in buffer system of histidine and histidine acetate” value in data set [3] was “promoted oxidative degradation”.

For the molecule `N[C@@H](Cc1c[nH]cn1)C(=O)O.O=C(O)CC(O)C(=O)O` [histidine malate], in data set [1] (pH 5.5), the “degradation of PS80 (Merck)” value is listed as “significantly less degradation”. The “degradation of PS20 (Merck)” value in data set [2] (pH 5.5) is “significantly less degradation”. In data set [4], the “degradation of PS80 HX2 in the presence of mAb1” value is “no significant degradation” and the “degradation of PS80 HX2 in the presence of mAb2” value is “no significant degradation”.

As for `N[C@@H](Cc1cnc[nH]1)C(=O)O.O=C(O)CCC(=O)C(=O)O` [histidine α-ketoglutarate], the “degradation of polysorbate 80 HX2” value in data set [4] (1 month) was “major to almost complete degradation”.

In the case of `Cl.c1c[nH]cn1` [imidazole chloride], the “degradation of PS80 HX2” value in data set [4] (0.02% w/v PS80 HX2, 20 mM buffer salt, AlaCl pH 5.0 or 6.0, ImiCl pH 5.0, 6.5 or 7.0, 50° C., 1 month) is on record as “degraded almost entirely; also recorded: Polysorbate degradation was detected”.

As for `OC[C@@H](O)[C@@H](O)[C@H](O)[C@H](O)CO` [mannitol], the “effect … of PS80” value in data set [1] (pH 6.5) is given as “did not slow down the degradation”. The “effect … of PS20” value in data set [2] (pH 6.5) is recorded as “did not slow down the degradation”.

As for `OC[C@H]1O[C@H](O[C@H]2O[C@H](CO)[C@@H](O)[C@H](O)[C@H]2O)[C@H](O)[C@@H](O)[C@@H]1O` [trehalose], in data set [1] (pH 6.5), the “effect … of PS80” value is on record as “did not slow down the degradation”. For the same molecule, in data set [2] (pH 6.5), the “effect … of PS20” value is reported as “did not slow down the degradation”.

As to alanine chloride, the “degradation of PS80 HX2” value in data set [4] (pH 5) is on record as “no degradation”.

In the case of histidine chloride [reference compound], in data set [1] (pH 5.5), the “degradation of PS80” value is given as “severe degradation” and the “degradation of PS80 (Merck)” value is “showed degradation”. Further, in data set [2] (pH 5.5), the “degradation of PS20” value is “severe degradation” and the “degradation of PS20 (Merck)” value was “showed degradation”. Moreover, in data set [4], the “degradation of PS80 HX2 in the presence of mAb1” value is recorded as “significant degradation” and the “degradation of PS80 HX2 in the presence of mAb2” value is reported as “significant degradation”.

For the molecule histidine glutarate, the “degradation of polysorbate 80 HX2” value in data set [4] (1 month) is “major to almost complete degradation”.

For the molecule “polyoxyethylene (20) sorbitan monooleate [PS80]”, the “rate of degradation compared with PS20 samples from the same manufacturer” value in data set [1] (pH 5.5) was “generally degrading faster”.

Source of the values: patent publication US20230137216A1, “Stabilization of Pharmaceutical Compositions Comprising Polysorbate” (LEK Pharmaceuticals d.d., priority 2020, published 2023).
